Drawing on patent US9914730B2, “Azaquinazoline inhibitors of Atypical protein Kinase C” (Ignyta, Inc., priority 2012, dated 2018), this text covers IC50 for 23 compounds.

The term IC50 denotes the concentration that gives 50% inhibition.

Where only a bound is given, the exact number is not on record here.

This experiment deals with T1, full-length human PKCι (Homo sapiens, UniProt P41743).
T1 construct: Recombinant, full-length human PKCι expressed in Sf21 insect cells is also commercially available; purchased; host or cells: Sf21 insect cells
T1 sequence (P41743 1-596): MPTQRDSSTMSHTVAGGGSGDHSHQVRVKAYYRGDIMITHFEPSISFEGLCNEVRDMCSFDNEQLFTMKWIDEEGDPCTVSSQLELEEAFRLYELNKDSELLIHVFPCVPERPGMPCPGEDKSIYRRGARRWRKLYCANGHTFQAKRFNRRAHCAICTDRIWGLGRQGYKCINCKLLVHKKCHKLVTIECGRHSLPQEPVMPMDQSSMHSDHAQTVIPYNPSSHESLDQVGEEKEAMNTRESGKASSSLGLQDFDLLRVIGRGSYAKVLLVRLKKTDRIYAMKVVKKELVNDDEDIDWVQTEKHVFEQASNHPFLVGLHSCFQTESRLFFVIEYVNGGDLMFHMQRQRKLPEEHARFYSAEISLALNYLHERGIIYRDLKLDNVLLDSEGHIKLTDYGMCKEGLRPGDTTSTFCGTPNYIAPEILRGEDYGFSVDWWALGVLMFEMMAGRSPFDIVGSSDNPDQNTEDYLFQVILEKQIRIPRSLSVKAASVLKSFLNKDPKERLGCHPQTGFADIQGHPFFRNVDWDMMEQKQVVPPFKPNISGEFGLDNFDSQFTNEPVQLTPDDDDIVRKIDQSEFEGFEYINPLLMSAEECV
In words: PKCι IC50 IMAP assay, full-length PKCι at 150 μM ATP. It counts as biochemical. To be noted: read-out: IC50 in IMAP assay against full length PKCi at 150 μM ATP. The gist of the method:
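Dose-response IC50 values come from IMAP fluorescence polarisation after 60 min room-temperature turnover of 100 nM FAM peptide by ~15 pM insect-cell-expressed full-length PKCι at 150 μM ATP (5× KM^APP), normalised to no-compound and no-enzyme controls.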

Regarding `COc1cncc2nc(-c3ccnc(Nc4ccccc4)c3)nc(N[C@@H]3CCN(CC(N)=O)C3)c12` [Example 245, 2-{3-[5-Methoxy-2-(2-phenylamino-pyridin-4-yl)-pyrido[3,4-d]pyrimidin-4-ylamino]-R-pyrrolidin-1-yl}-acetamide], the IC50 was in the range of 1000 to 10000 nM. Take `c1cc(-c2nc(N[C@@H]3CCNC3)c3ccncc3n2)ccn1` [Example 7, (3R)-N-[2-(pyridin-4-yl)pyrido[3,4-d]-pyrimidin-4-yl]-pyrrolidin-3-amine]: the IC50 is less than 100 nM. With `C[C@H]1CN(c2nc(-c3ccnc(Nc4ccccc4)c3)nc3cncc(Cl)c23)CCN1` [Example 250, {4-[5-Chloro-4-((S)-3-methyl-piperazin-1-yl)-pyrido[3,4-d]pyrimidin-2-yl]-pyridin-2-yl}-phenyl-amine] the figure was 100 to 1000 nM; with `COc1cncc2nc(-c3ccnc(Nc4ccc(Cl)cn4)c3)nc(N3CCNCC3)c12` [Example 366, (5-Chloro-pyridin-2-yl)-[4-(5-methoxy-4-piperazin-1-yl-pyrido[3,4-d]pyrimidin-2-yl)-pyridin-2-yl]-amine], less than 100 nM; with `NC(=O)N1CCN(c2nc(-c3ccnc(Nc4ccccc4)c3)nc3cncc(C4CC4)c23)CC1` [Example 638, 4-[5-Cyclopropyl-2-(2-phenylamino-pyridin-4-yl)-pyrido[3,4-d]pyrimidin-4-yl]-piperazine-1-carboxylic acidamide], 100 to 1000 nM. With `COc1cncc2nc(-c3ccnc(Nc4ccc(C#N)cn4)c3)nc(N3CCNCC3)c12` [Example 353, 6-[4-(5-Methoxy-4-piperazin-1-yl-pyrido[3,4-d]pyrimidin-2-yl)-pyridin-2-ylamino]-nicotinonitrile] the figure was less than 100 nM. Under `O=C(Nc1cc(-c2nc(N[C@@H]3CCNC3)c3ccncc3n2)ccn1)c1cnccn1` [Example 307, Pyrazine-2-carboxylic acid {4-[4-((R)-pyrrolidin-3-ylamino)-pyrido[3,4-d]pyrimidin-2-yl]-pyridin-2-yl}-amide] stands 100 to 1000 nM; under `COc1cncc2nc(-c3ccncc3)nc(N3CCN[C@@H](Cc4ccccc4)C3)c12` [Example 30, (3S)-3-benzyl-1-[5-methoxy-2-(pyridin-4-yl)-pyrido[3,4-d]-pyrimidin-4-yl]-piperazine], 1000 to 10000 nM; under `COCCN1CCN(c2nc(-c3ccnc(Nc4ccc(F)cc4)c3)nc3cncc(C4CC4)c23)CC1` [Example 662, (4-{5-Cyclopropyl-4-[4-(2-methoxy-ethyl]-piperazin-1-yl]-pyrido[3,4-d]pyrimidin-2-yl}-pyridin-2-yl)-(4-fluoro-phenyl)-amine], 1000 to 10000 nM. Turning to `FC(F)(F)C1CN(c2nc(-c3ccnc(NC4CCCC4)c3)nc3cncc(C4CC4)c23)CCN1` (centres unmarked) [Example 284, Cyclopentyl-{4-[5-cyclopropyl-4-(3-trifluoromethyl-piperazin-1-yl)-pyrido[3,4-d]pyrimidin-2-yl]-pyridin-2-yl}-amine], the IC50 fell in the range of 100 to 1000 nM.

Take `Cc1cc2c(-c3nc(N4CCNCC4)c4c(C5CC5)cnc(Cl)c4n3)ccnc2[nH]1` [Example 2092, 8-Chloro-5-cyclopropyl-2-(2-methyl-1H-pyrrolo[2,3-b]pyridin-4-yl)-4-piperazin-1-yl-pyrido[3,4-d]pyrimidine]: the half-maximal inhibitory concentration (IC50) is less than 100 nM.

Consider `CC(C)(C)c1cc2c(-c3nc(N4CCNCC4)c4c(C5CC5)cnc(F)c4n3)ccnc2[nH]1` [Example 2119, 2-(2-tert-Butyl-1H-pyrrolo[2,3-b]pyridin-4-yl)-5-cyclopropyl-8-fluoro-4-piperazin-1-yl-pyrido[3,4-d]pyrimidine], for which the IC50 is less than 100 nM.

As to `CP(C)(=O)c1ccc(Nc2cc(-c3nc(N4CCNCC4)c4c(C5CC5)cncc4n3)ccn2)cc1` [Example 549, [4-(5-Cyclopropyl-4-piperazin-1-yl-pyrido[3,4-d]pyrimidin-2-yl)-pyridin-2-yl]-[4-(dimethyl-phosphinoyl)-phenyl]-amine], the IC50 was less than 100 nM. As to `c1cc(-c2nc(N3CCNCC3)c3c(C4CC4)cncc3n2)cc(N[C@H]2C[C@@H]3CC[C@H]2C3)n1` [Example 823, (1S,2S,4R)-Bicyclo[2.2.1]hept-2-yl-[4-(5-cyclopropyl-4-piperazin-1-yl-pyrido[3,4-d]pyrimidin-2-yl)-pyridin-2-yl]-amine], the IC50 was less than 100 nM. Under `CN1CCN(C(=O)C2CCN(c3nc(-c4ccnc(Nc5c(F)cccc5F)c4)nc4cncc(C5CC5)c34)CC2)CC1` [Example 735, (1-{5-Cyclopropyl-2-[2-(2,6-difluoro-phenylamino)-pyridin-4-yl]-pyrido[3,4-d]pyrimidin-4-yl}-piperidin-4-yl)-(4-methyl-piperazin-1-yl)-methanone] stands 100 to 1000 nM. For `CN1CCN(c2cccc(Nc3cc(-c4nc(N5CCN[C@@H](C(F)(F)F)C5)c5c(C6CC6)cncc5n4)ccn3)c2)CC1` [Example 2052, {4-[5-Cyclopropyl-4-((R)-3-trifluoromethyl-piperazin-1-yl)-pyrido[3,4-d]pyrimidin-2-yl]-pyridin-2-yl}-[3-(4-methyl-piperazin-1-yl)-phenyl]-amine], the IC50 was less than 100 nM.

With `c1cc(-c2nc(N3CCNCC3)c3c(C4CC4)cncc3n2)c2cc(C3CCOC3)[nH]c2n1` (centres unmarked) [Example 2192, 5-Cyclopropyl-4-piperazin-1-yl-2-[2-(tetrahydro-furan-3-yl)-1H-pyrrolo[2,3-b]pyridin-4-yl]-pyrido[3,4-d]pyrimidine], the IC50 was less than 100 nM.

Regarding `COc1cncc2nc(N3CCOCC3)nc(N3CCN[C@@H](CO)C3)c12` [Example 1005, [(R)-4-(5-Methoxy-2-morpholin-4-yl-pyrido[3,4-d]pyrimidin-4-yl)-piperazin-2-yl]-methanol], the IC50 was 100 to 1000 nM. Under `Fc1ccc(F)c(Nc2cc(-c3nc(N4CCNCC4)c4c(C5CC5)cncc4n3)ccn2)c1Cl` [Example 635, (2-Chloro-3,6-difluoro-phenyl)-[4-(5-cyclopropyl-4-piperazin-1-yl-pyrido[3,4-d]pyrimidin-2-yl)-pyridin-2-yl]-amine] stands less than 100 nM.

Turning to `Cn1c(C(F)(F)F)cc2c(-c3nc(N[C@@H]4CCNC4)c4c(C5CC5)cncc4n3)ccnc21` [Example 2077, [5-Cyclopropyl-2-(1-methyl-2-trifluoromethyl-1H-pyrrolo[2,3-b]pyridin-4-yl)-pyrido[3,4-d]pyrimidin-4-yl]-(R)-pyrrolidin-3-yl-amine], the IC50 is 10000 to 40000 nM. Turning to `Fc1ccc(C2(c3cc4c(-c5nc(N6CCNCC6)c6c(C7CC7)cncc6n5)ccnc4[nH]3)CC2)cc1` [Example 2048, 5-Cyclopropyl-2-{2-[1-(4-fluoro-phenyl)-cyclopropyl]-1H-pyrrolo[2,3-b]pyridin-4-yl}-4-piperazin-1-yl-pyrido[3,4-d]pyrimidine], the IC50 is less than 100 nM.

On to `N[C@H](CNc1nc(-c2ccncc2)nc2c(-c3cccc(-c4cccc(Cl)c4)c3)nccc12)Cc1ccccc1` [Example 106, N-[(2S)-2-amino-3-phenylpropyl]-8-[3-(3-chloro-phenyl)-phenyl]-2-(pyridin-4-yl)pyrido[3,4-d]pyrimidin-4-amine], for which the 50% inhibitory concentration (IC50) was 1000 to 10000 nM. Under `FC(F)(F)C1(c2cc3c(-c4nc(N5CCNCC5)c5c(C6CCC6)cncc5n4)ccnc3[nH]2)CCC1` [Example 2183, 5-Cyclobutyl-4-piperazin-1-yl-2-[2-(1-trifluoromethyl-cyclobutyl)-1H-pyrrolo[2,3-b]pyridin-4-yl]-pyrido[3,4-d]pyrimidine] stands less than 100 nM.
